Test results reported in ChEMBL document CHEMBL1141185, “4,6-Disubstituted 2,2-dimethylchromans structurally related to the K(ATP) channel opener cromakalim: design, synthesis, and effect on insulin release and vascular tone” (J Med Chem, 2005).

Legend:
Format in all cases: functional
[1] = species on record: Rattus norvegicus; assay: Percentage of residual insulin secretion value in the pancreatic islets of rat after treatment with the compound at 10 uM concentration
[2] = species on record: Rattus norvegicus; assay: Myorelaxant activity of the compound against insulin secretion in the pancreatic islets ofrat; (activity expressed as ED50); settings: read-out: ED50 (the source's name)
[3] = species on record: Rattus norvegicus; assay: Myorelaxant effect on 80 mM KCl induced rat aorta rings determined; (activity expressed as ED50); settings: read-out: ED50 (the source's name)
[4] = species on record: Rattus norvegicus; assay: Myorelaxant effect on 30 mM KCl induced rat aorta rings determined; (activity expressed as ED50); settings: read-out: ED50 (the source's name)
[5] = species on record: Rattus norvegicus; assay: Myorelaxant effect on 30 mM KCl induced rat aorta rings determined after incubated with the 1 uM glibenclamide in the medium; (activity expressed as ED50); settings: read-out: ED50 (the source's name)
[6] = species on record: Rattus norvegicus; assay: Myorelaxant effect on 30 mM KCl induced rat aorta rings determined after incubated with the 10 uM glibenclamide in the medium; (activity expressed as ED50); settings: read-out: ED50 (the source's name)
[7] = species on record: Rattus norvegicus; assay: Myorelaxant effect of the compound on 80 mM KCl induced rat aorta rings determined; (activity expressed as ED50); settings: read-out: ED50 (the source's name)
[8] = species on record: Rattus norvegicus; assay: Inhibitory concentration against rat vascular smooth muscle tissue
[9] = species on record: Rattus norvegicus; assay: Myorelaxant effect of the compound on 30 mM KCl induced rat aorta rings determined after incubated with the 0 uM glibenclamide in the medium; (activity expressed as ED50); settings: read-out: ED50 (the source's name)
[10] = species on record: Rattus norvegicus; assay: Myorelaxant effect of the compound on 30 mM KCl induced rat aorta rings determined after incubated with the 1 uM glibenclamide in the medium; (activity expressed as ED50); settings: read-out: ED50 (the source's name)
[11] = species on record: Rattus norvegicus; assay: Myorelaxant effect of the compound on 30 mM KCl induced rat aorta rings determined after incubated with the 10 uM glibenclamide in the medium; (activity expressed as ED50); settings: read-out: ED50 (the source's name)

EC50 [2] | SMILES | Residual secretion [1] | other results
42.9 µM | CCNC(=O)NC1CC(C)(C)Oc2ccc(F)cc21 (stereo not given) | 106.2% | –
3.7 µM | CCNC(=S)NC1CC(C)(C)Oc2ccc(Br)cc21 (stereo not given) | 80.8% | –
63.6 µM | Cc1ccc(S(=O)(=O)NC(=O)NC2CC(C)(C)Oc3ccc(Cl)cc32)cc1 (stereo not given) | 103.5% | –
6.8 µM | CCNC(=O)NC1CC(C)(C)Oc2ccc(Cl)cc21 (stereo not given) | 89.5% | –
109 µM | CC(C)NC(=O)NC1CC(C)(C)Oc2ccc(F)cc21 (stereo not given) | 98.4% | –
46.5 µM | CC(=O)NC1CC(C)(C)Oc2ccc(F)cc21 (stereo not given) | 83.8% | –
15.3 µM | CC1(C)CC(NC(=O)NCc2ccccc2)c2cc(Cl)ccc2O1 (stereo not given) | 67.1% | –
17.6 µM | CCNC(=S)NC1CC(C)(C)Oc2ccc(F)cc21 (stereo not given) | 82.5% | –
25.7 µM | CCOC(=O)NC1CC(C)(C)Oc2ccc(Br)cc21 (stereo not given) | 88.8% | –
> 300 µM | CC1(C)CC(NC(=O)NCc2ccccc2)c2cc(Br)ccc2O1 (stereo not given) | 58.5% | –
24.8 µM | CC1(C)CC(NC(=S)NCc2ccccc2)c2cc(Br)ccc2O1 (stereo not given) | 51.8% | –
210 µM | CC1(C)CC(NC(=O)NS(=O)(=O)c2ccccc2)c2cc(Cl)ccc2O1 (stereo not given) | 94.7% | –
4.3 µM | CC1(C)CC(NC(=S)NCc2ccccc2)c2cc(F)ccc2O1 (stereo not given) | 54.4% | –
6.4 µM | CC(=O)NC1CC(C)(C)Oc2ccc(Br)cc21 (stereo not given) | 94.2% | –
51 µM | CC1(C)CC(NC(=O)NS(=O)(=O)c2ccc(Cl)cc2)c2cc(Cl)ccc2O1 (stereo not given) | 89.2% | –
> 300 µM | CC(C)NC(=O)NC1CC(C)(C)Oc2ccc(Br)cc21 (stereo not given) | 79.1% | –
7.6 µM | CCNC(=O)NC1CC(C)(C)Oc2ccc(Br)cc21 (stereo not given) | 91.5% | –
38.5 µM | CCOC(=O)NC1CC(C)(C)Oc2ccc(Cl)cc21 (stereo not given) | 83.3% | –
20.2 µM | CC1(C)CC(NC(=S)NCc2ccccc2)c2cc(Cl)ccc2O1 (stereo not given) | 45.4% | –
8.7 µM | CC(C)NC(=S)NC1CC(C)(C)Oc2ccc(Br)cc21 (stereo not given) | 58.9% | –
– | CC1(C)CC(NC(=O)NCc2ccccc2)c2cc(F)ccc2O1 (stereo not given) | 80.8% | –
10.9 µM | CC(C)NC(=S)NC1CC(C)(C)Oc2ccc(Cl)cc21 (stereo not given) | 83.3% | –
72.4 µM | CCOC(=O)NC1CC(C)(C)Oc2ccc(F)cc21 (stereo not given) | 100.8% | –
144 µM | CC(C)NC(=O)NC1CC(C)(C)Oc2ccc(Cl)cc21 (stereo not given) | 86.3% | –
6.6 µM | CC(=O)NC1CC(C)(C)Oc2ccc(Cl)cc21 (stereo not given) | 100.8% | EC50 [3]: 84.2 µM; EC50 [4]: 6.3 µM; EC50 [5]: 33.8 µM; EC50 [6]: 44.6 µM
18.5 µM | CC(C)NC(=S)NC1CC(C)(C)Oc2ccc(F)cc21 (stereo not given) | 88.7% | –
8.2 µM | CCNC(=S)NC1CC(C)(C)Oc2ccc(Cl)cc21 (stereo not given) | 96.5% | –
0.13 µM | CC1(C)Oc2ccc(C#N)cc2C(N2CCCC2=O)C1O (stereo not given) [CROMAKALIM] | 94.7% | EC50 [7]: > 300 µM; IC50 [8]: 0.13 µM; EC50 [9]: 0.14 µM; EC50 [10]: 1.8 µM; EC50 [11]: 15.2 µM
23.8 µM | CC1=Nc2ccc(Cl)cc2S(=O)(=O)N1 [DIAZOXIDE] | 71.7% | IC50 [8]: 23.8 µM
0.35 µM | CC(N/C(=N\C#N)Nc1ccncc1)C(C)(C)C (stereo not given) [PINACIDIL ANHYDROUS] | 96% | IC50 [8]: 0.35 µM
